Assay results reported in patent US20140107021A1 (priority 2010, published 2014).
Like-named read-outs stand apart in the source and are kept apart here. Values belong to the compound of their own block, whether it stands above or below them. Square brackets hold non-standard residues; d marks the D form. Side chains are listed from the residue outwards. Ends that are not written are not given here. Peptide text beside a SMILES is read from it.

Assays:
solubility at pH 6-8 = format: physicochemical
glucagon receptor [1] = biological target: T1, glucagon receptor (Homo sapiens, UniProt P47871); assay: cell-based
Text: HEK293 cells co-transfected with the receptor and luciferase gene linked to a cAMP responsive element were employed for the bioassay.
All EC50s and IC50s are reported in the following examples in nM, unless indicated otherwise.

glucagon receptor [2] = biological target: T1, glucagon receptor; assay: glucagon receptor binding; parameters: expressed in transfected cells; host or cells: HEK293
[3] = IC50(nM) (cAMP, inhibit Glucagon) 0.1 nM, Table J, inhibit 0.1 nM glucagon
[4] = Table J, read-out: IC50(nM) (Receptor binding)
[5] = read-out: IC50(nM) (cΛMP, inhibit 0.2 mM Glucagon), Table L, inhibit 0.2 mM Glucagon
[6] = Table L, read-out: IC50(nM) (Receptor binding)
[7] = Table L, inhibit 0.2 mM Glucagon

T1 sequence (P47871 26-477): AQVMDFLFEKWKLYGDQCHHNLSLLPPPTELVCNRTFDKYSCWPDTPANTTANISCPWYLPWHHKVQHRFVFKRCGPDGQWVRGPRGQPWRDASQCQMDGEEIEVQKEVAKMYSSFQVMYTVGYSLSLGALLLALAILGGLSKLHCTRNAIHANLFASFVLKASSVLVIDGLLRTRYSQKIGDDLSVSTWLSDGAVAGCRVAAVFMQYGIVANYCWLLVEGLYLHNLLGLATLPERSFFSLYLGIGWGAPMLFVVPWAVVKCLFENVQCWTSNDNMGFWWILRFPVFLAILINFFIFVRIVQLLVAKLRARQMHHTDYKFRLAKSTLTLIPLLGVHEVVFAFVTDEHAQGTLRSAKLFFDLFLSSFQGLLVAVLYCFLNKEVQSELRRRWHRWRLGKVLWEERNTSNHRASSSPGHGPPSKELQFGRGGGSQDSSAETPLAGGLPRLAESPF

Solubility (%, pH 6-8) (solubility at pH 6-8): 100%
Compound: CSCC[C@H](NC(=O)[C@H](CC(C)C)NC(=O)[C@H](Cc1c[nH]c2ccccc12)NC(=O)[C@H](CCC(N)=O)NC(=O)[C@@H](NC(=O)[C@H](Cc1ccccc1)NC(=O)[C@H](CC(=O)O)NC(=O)[C@H](CCC(N)=O)NC(=O)[C@H](C)NC(=O)[C@H](CCCNC(=N)N)NC(=O)[C@H](CCCNC(=N)N)NC(=O)[C@H](CO)NC(=O)[C@H](CC(=O)O)NC(=O)[C@H](CC(C)C)NC(=O)[C@H](Cc1ccc(O)cc1)NC(=O)[C@H](CCCCN)NC(=O)[C@H](CO)NC(=O)[C@H](Cc1ccc(O)cc1)NC(=O)[C@H](CC(=O)O)NC(=O)[C@H](CO)NC(=O)[C@@H](NC(=O)[C@@H](O)Cc1ccccc1)[C@@H](C)O)C(C)C)C(=O)N[C@@H](CC(=O)O)C(=O)N[C@H](C(N)=O)[C@@H](C)O [[PLA6, D9, D28]Glucagon(aa6-29)-NH2]

IC50 (glucagon receptor [1]; [3]): 13.2 nM | Solubility (%, pH 6-8) (solubility at pH 6-8): 96%
Compound: CSCC[C@H](NC(=O)[C@H](CC(C)C)NC(=O)[C@H](Cc1c[nH]c2ccccc12)NC(=O)[C@H](CCC(N)=O)NC(=O)[C@@H](NC(=O)[C@H](Cc1ccccc1)NC(=O)[C@H](CC(=O)O)NC(=O)[C@H](CCC(N)=O)NC(=O)[C@H](C)NC(=O)[C@H](CCCNC(=N)N)NC(=O)[C@H](CCCNC(=N)N)NC(=O)[C@H](CO)NC(=O)[C@H](CC(=O)O)NC(=O)[C@H](CC(C)C)NC(=O)[C@H](Cc1ccc(O)cc1)NC(=O)[C@H](CCCCN)NC(=O)[C@H](CO)NC(=O)[C@H](Cc1ccc(O)cc1)NC(=O)[C@H](CC(=O)O)NC(=O)[C@H](CO)NC(=O)[C@@H](NC(=O)[C@@H](O)Cc1ccccc1)[C@@H](C)O)C(C)C)C(=O)N[C@@H](CC(N)=O)C(=O)N[C@H](C(=O)O)[C@@H](C)O [[PLA6, D9]Glucagon(aa6-29)-COOH] (HELM PEPTIDE1{[O=C([C@@H](O)Cc1ccccc1)[*:2]].T.S.D.Y.S.K.Y.L.D.S.R.R.A.Q.D.F.V.Q.W.L.M.N.T}$$$$V2.0)

Solubility (%, pH 6-8) (solubility at pH 6-8): 11% | IC50 (glucagon receptor [2]; [4]): 13.9 ± 3.22 nM
Compound: CSCC[C@H](NC(=O)[C@H](CC(C)C)NC(=O)[C@H](Cc1c[nH]c2ccccc12)NC(=O)[C@H](CCC(N)=O)NC(=O)[C@@H](NC(=O)[C@H](Cc1ccccc1)NC(=O)[C@H](CC(=O)O)NC(=O)[C@H](CCC(N)=O)NC(=O)[C@H](C)NC(=O)[C@H](CCCNC(=N)N)NC(=O)[C@H](CCCNC(=N)N)NC(=O)[C@H](CO)NC(=O)[C@H](CC(=O)O)NC(=O)[C@H](CC(C)C)NC(=O)[C@H](Cc1ccc(O)cc1)NC(=O)[C@H](CCCCN)NC(=O)[C@H](CO)NC(=O)[C@H](Cc1ccc(O)cc1)NC(=O)[C@H](CC(=O)O)NC(=O)[C@H](CO)NC(=O)[C@@H](NC(=O)[C@@H](O)Cc1ccccc1)[C@@H](C)O)C(C)C)C(=O)N[C@@H](CC(N)=O)C(=O)N[C@H](C(N)=O)[C@@H](C)O [[PLA6, D9]Glucagon(aa6-29)-NH2] (HELM PEPTIDE1{[O=C([C@@H](O)Cc1ccccc1)[*:2]].T.S.D.Y.S.K.Y.L.D.S.R.R.A.Q.D.F.V.Q.W.L.M.N.T.[am]}$$$$V2.0)

Compound: CSCC[C@H](NC(=O)[C@H](CC(C)C)NC(=O)[C@H](Cc1c[nH]c2ccccc12)NC(=O)[C@H](CCC(N)=O)NC(=O)[C@@H](NC(=O)[C@H](Cc1ccccc1)NC(=O)[C@H](CC(=O)O)NC(=O)[C@H](CCC(N)=O)NC(=O)[C@H](C)NC(=O)[C@H](CCCNC(=N)N)NC(=O)[C@H](CCCNC(=N)N)NC(=O)[C@H](CO)NC(=O)[C@H](CC(=O)O)NC(=O)[C@H](CC(C)C)NC(=O)[C@H](Cc1ccc(O)cc1)NC(=O)[C@H](CCCCN)NC(=O)[C@H](CO)NC(=O)[C@H](Cc1ccc(O)cc1)NC(=O)[C@H](CCC(=O)O)NC(=O)[C@H](CO)NC(=O)[C@@H](NC(=O)[C@@H](O)Cc1ccccc1)[C@@H](C)O)C(C)C)C(=O)N[C@@H](CC(N)=O)C(=O)N[C@H](C(=O)NCC(=O)N1CCC[C@H]1C(=O)N[C@@H](CO)C(=O)N[C@@H](CO)C(=O)NCC(=O)N[C@@H](C)C(=O)N1CCC[C@H]1C(=O)N1CCC[C@H]1C(=O)N1CCC[C@H]1C(=O)N[C@@H](CO)C(N)=O)[C@@H](C)O [[PLA6, E9]Glucagon (aa6-29 + CEX)-NH2] (HELM PEPTIDE1{[O=C([C@@H](O)Cc1ccccc1)[*:2]].T.S.E.Y.S.K.Y.L.D.S.R.R.A.Q.D.F.V.Q.W.L.M.N.T.G.P.S.S.G.A.P.P.P.S.[am]}$$$$V2.0)
IC50 (glucagon receptor [1]; [3]): 24.8 nM | Solubility (%, pH 6-8) (solubility at pH 6-8): 16% | IC50 (glucagon receptor [2]; [4]): 40.3 ± 11.3 nM

IC50 (glucagon receptor [1]; [3]): 2.39 nM | IC50 (glucagon receptor [1]; IC50(nM) (cAMP, inhibit Glucagon) 0.2 nM, Table J, inhibit 0.2 nM glucagon): 42.4 nM | Solubility (%, pH 6-8) (solubility at pH 6-8): 11% | IC50 (glucagon receptor [2]; [4]): 12.3 ± 2.24 nM | IC50 (glucagon receptor [2]; Table K, read-out: IC50(nM) (Receptor binding)): 12.3 ± 0.13 nM
Compound: CSCC[C@H](NC(=O)[C@H](CC(C)C)NC(=O)[C@H](Cc1c[nH]c2ccccc12)NC(=O)[C@H](CCC(N)=O)NC(=O)[C@@H](NC(=O)[C@H](Cc1ccccc1)NC(=O)[C@H](CC(=O)O)NC(=O)[C@H](CCC(N)=O)NC(=O)[C@H](C)NC(=O)[C@H](CCCNC(=N)N)NC(=O)[C@H](CCCNC(=N)N)NC(=O)[C@H](CO)NC(=O)[C@H](CC(=O)O)NC(=O)[C@H](CC(C)C)NC(=O)[C@H](Cc1ccc(O)cc1)NC(=O)[C@H](CCCCN)NC(=O)[C@H](CO)NC(=O)[C@H](Cc1ccc(O)cc1)NC(=O)[C@H](CCC(=O)O)NC(=O)[C@H](CO)NC(=O)[C@@H](NC(=O)[C@@H](O)Cc1ccccc1)[C@@H](C)O)C(C)C)C(=O)N[C@@H](CC(N)=O)C(=O)N[C@H](C(N)=O)[C@@H](C)O [[PLA6, E9]Glucagon(aa6-29)-NH2] (HELM PEPTIDE1{[O=C([C@@H](O)Cc1ccccc1)[*:2]].T.S.E.Y.S.K.Y.L.D.S.R.R.A.Q.D.F.V.Q.W.L.M.N.T.[am]}$$$$V2.0)

Kb (glucagon receptor [1]): 69.2 nM | cAMP pA2 (glucagon receptor [1]; Table I): 7.16 ± 0.51 | IC50 (glucagon receptor [1]; cAMP IC50(nM), Table H): 133 nM | IC50 (glucagon receptor [2]; Table H, same values as receptor binding in Table I, read-out: IC50): 59.1 ± 18.1 nM
Compound: CSCC[C@H](NC(=O)[C@H](CC(C)C)NC(=O)[C@H](Cc1c[nH]c2ccccc12)NC(=O)[C@H](CCC(N)=O)NC(=O)[C@@H](NC(=O)[C@H](Cc1ccccc1)NC(=O)[C@H](CC(=O)O)NC(=O)[C@H](CCC(N)=O)NC(=O)[C@H](C)NC(=O)[C@H](CCCNC(=N)N)NC(=O)[C@H](CCCNC(=N)N)NC(=O)[C@H](CO)NC(=O)[C@H](CC(=O)O)NC(=O)[C@H](CC(C)C)NC(=O)[C@H](Cc1ccc(O)cc1)NC(=O)[C@H](CCCCN)NC(=O)[C@H](CO)NC(=O)[C@H](Cc1ccc(O)cc1)NC(=O)[C@H](CCS(=O)(=O)O)NC(=O)[C@H](CO)NC(=O)[C@@H](NC(=O)[C@@H](N)Cc1ccccc1)[C@@H](C)O)C(C)C)C(=O)N[C@@H](CC(N)=O)C(=O)N[C@H](C(N)=O)[C@@H](C)O [[hCys^9(SO3H)]Glucagon(aa6-29)-NH2] (HELM PEPTIDE1{F.T.S.[O=C([C@H](CCS(=O)(=O)O)N[*:1])[*:2]].Y.S.K.Y.L.D.S.R.R.A.Q.D.F.V.Q.W.L.M.N.T.[am]}$$$$V2.0)

Compound: FTSEYSKYLDSRRAQDFVQWLMNT-NH2 [[Glu^9]Glucagon(aa6-29)-NH2]
Kb (glucagon receptor [1]): 69.2 nM | cAMP (I/A)50 (glucagon receptor [1]): 486 | cAMP pA2 (glucagon receptor [1]): 7.16 ± 0.27 | IC50 (glucagon receptor [2]; Table G, average ±STD of at least three experiments, same values as receptor binding in Table I, read-out: IC50): 36.4 ± 5.23 nM

IC50 (glucagon receptor [1]; [5]): 2280 nM | IC50 (glucagon receptor [2]; [6]): 1080 ± 268 nM
Compound: [C5(1.2 kDaPEG), E9]Glucagon(aa5-29)-NII2

IC50(nM) (cΛMP, inhibit 0.2 mM Glucagon) (glucagon receptor [1]; [7]): no antagonism | IC50 (glucagon receptor [2]; [6]): > 1000 nM
Compound: [C8(20 kDaPEG), E9]Glucagon(aa6-29)-NH2 (FTC(PEG 20 kDa)EYSKYLDSRRAQDFVQWLMNT-NH2)

IC50(nM) (cΛMP, inhibit 0.2 mM Glucagon) (glucagon receptor [1]; [7]): no antagonism | IC50 (glucagon receptor [2]; [6]): > 1000 nM
Compound: [E9, C11(20 kDaPEG)]Glucagon(aa6-29)-NH2 (FTSEYC(PEG 20 kDa)KYLDSRRAQDFVQWLMNT-NH2)

IC50(nM) (cΛMP, inhibit 0.2 mM Glucagon) (glucagon receptor [1]; [7]): no antagonism | IC50 (glucagon receptor [2]; [6]): > 1000 nM
Compound: [E9, C24(20 kDaPEG)]Glucagon(aa6-29)-NH2 (FTSEYSKYLDSRRAQDFVC(PEG 20 kDa)WLMNT-NH2; not fully specified (residue 1))

IC50(nM) (cΛMP, inhibit 0.2 mM Glucagon) (glucagon receptor [1]; [7]): no antagonism | IC50 (glucagon receptor [2]; [6]): > 10000 nM
Compound: [K5(CH2CH2S-20 kDaPEG), E9]Glucagon(aa5-29)-NH2 (K([CH2CH2S-PEG 20 kDa])FTSEYSKYLDSRRAQDFVQWLMNT-NH2)

IC50(nM) (cΛMP, inhibit 0.2 mM Glucagon) (glucagon receptor [1]; [7]): no antagonism | IC50 (glucagon receptor [2]; [6]): > 10000 nM
Compound: [Phe6, E9, C24(20 kDaPEG)]Glucagon aa6-29)-NH2 (FTSEYSKYLDSRRAQDFVC(PEG20kDa)WLMNT-NH2)

IC50 (glucagon receptor [1]; [5]): 14800 nM | IC50 (glucagon receptor [2]; [6]): > 10000 nM
Compound: [d-Cys5(20 kDaPEG, E9]Glucagon(aa5-29)-NH2 ([dC](PEG 20 kDa)FTSEYSKYLDSRRAQDFVQWLMNT-NH2)
